Read-outs that look alike come from different tables or passages of the source.
Tests used:
OX2R [1] = target: T1, OX2R (Mus musculus, UniProt P58308); conditions: cited from earlier work
T1 construct: host or cells: mice (WT, orexin-deficient, orexin-neuron ablated)
T1 sequence (P58308 1-460): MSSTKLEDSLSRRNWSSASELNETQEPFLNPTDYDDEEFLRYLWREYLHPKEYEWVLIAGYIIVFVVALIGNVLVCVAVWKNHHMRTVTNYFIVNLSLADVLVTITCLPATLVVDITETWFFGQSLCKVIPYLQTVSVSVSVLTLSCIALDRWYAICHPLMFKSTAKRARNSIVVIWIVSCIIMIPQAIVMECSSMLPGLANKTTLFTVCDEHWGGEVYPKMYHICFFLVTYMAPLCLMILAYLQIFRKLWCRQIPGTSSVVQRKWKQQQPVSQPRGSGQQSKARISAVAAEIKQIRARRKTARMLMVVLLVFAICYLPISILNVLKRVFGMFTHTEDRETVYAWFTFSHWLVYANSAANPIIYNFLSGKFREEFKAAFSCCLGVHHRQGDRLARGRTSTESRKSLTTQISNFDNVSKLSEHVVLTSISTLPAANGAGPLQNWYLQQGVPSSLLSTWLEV

OX2R [2] = target: T2, OX2R (Homo sapiens, UniProt O43614); conditions: individuals with NT1; initial clinical studies; cited from earlier work
T2 construct: host or cells: individuals with NT1
T2 sequence (O43614 1-444): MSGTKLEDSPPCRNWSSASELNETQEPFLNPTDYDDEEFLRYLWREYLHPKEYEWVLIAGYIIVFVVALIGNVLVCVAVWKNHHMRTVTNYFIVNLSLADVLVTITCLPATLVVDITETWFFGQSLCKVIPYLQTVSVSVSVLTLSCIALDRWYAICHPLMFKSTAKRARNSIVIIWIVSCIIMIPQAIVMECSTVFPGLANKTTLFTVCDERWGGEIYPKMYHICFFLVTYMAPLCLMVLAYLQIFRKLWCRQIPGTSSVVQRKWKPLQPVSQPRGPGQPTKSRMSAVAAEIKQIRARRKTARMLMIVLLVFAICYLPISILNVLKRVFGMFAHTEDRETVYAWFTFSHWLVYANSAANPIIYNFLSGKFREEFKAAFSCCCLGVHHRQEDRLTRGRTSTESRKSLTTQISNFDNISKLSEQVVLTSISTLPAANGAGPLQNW

[3] = target: T3, human orexin type 2 receptor (hOX2R) (Homo sapiens, UniProt O43614); test: cell-based;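 further: agonist activity in CHO cells stably expressing hOX2R, intracellular Ca2+ via Calcium 5 dye fluorescence area over 2 min, buffer-only as 0% and 10 nM orexin A as 100%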
T3 sequence (O43614 1-444): T2 sequence (O43614 1-444)

COC(=O)N1CCC[C@H](NS(C)(=O)=O)[C@@H]1CO[C@H]1CC[C@@H](c2ccccc2)CC1 [TAK-925]
wakefulness (OX2R [1]; subcutaneous administration, WT mice): modestly increased wakefulness | cataplexy (OX2R [2]): trends for decreasing cataplexy | wakefulness (OX2R [2]): substantial levels of increased wakefulness

COc1ccc(-c2cccc(C(=O)N(C)C)c2)cc1S(=O)(=O)Nc1cccc(NCCNC(=O)c2ccccc2N(C)C)c1 [YNT-185]
sleep-onset REM periods and cataplexy-like events (OX2R [1]; intraperitoneally or ICV, NT1 mouse model): decrease sleep-onset REM periods and cataplexy-like events | wakefulness (OX2R [1]; intraperitoneally or ICV, wild type (WT) and orexin ligand-deficient mice): modestly increases wakefulness

C[C@@H](F)S(=O)(=O)N[C@@H]1[C@H](Cc2cc(F)cc(-c3cc(F)cc(F)c3)c2F)N(C(=O)[C@H]2CCO2)CC12CC2 [compound 57, (S)-1-fluoro-N-((6S,7S)-5-((R)-oxetane-2-carbonyl)-6-((2,3′,5,5′-tetrafluoro-[1,1′-biphenyl]-3-yl)methyl)-5-azaspiro[2.4]heptan-7-yl)ethane-1-sulfonamide]
EC50 [3]: 1 to 10 nM

N#C[C@]1(C(=O)N2CC3(CC3)[C@H](NS(=O)(=O)CF)[C@@H]2Cc2cc(F)cc(-c3ccccc3)c2F)CCO1 [compound 85, N-((6S,7S)-5-((S)-2-cyanooxetane-2-carbonyl)-6-((2,5-difluoro-[1,1′-biphenyl]-3-yl)methyl)-5-azaspiro[2.4]heptan-7-yl)-1-fluoromethanesulfonamide]
EC50 [3]: 1 to 10 nM

— US20250100968A1, “BICYCLIC-HETEROCYCLE DERIVATIVES AND RELATED USES” (CENTESSA PHARMACEUTICALS (UK) LIMITED, priority 2022, published 2025)
